# Data: ChEMBL document CHEMBL6134785, “New ATP-competitive inhibitors of E. coli GyrB obtained from the mapping of the hydrophobic floor at the binding site: synthesis and biological evaluation” (RSC Med Chem, 2024)
# Molecular target: DNA gyrase (Escherichia coli, UniProt P0AES4+P0AES6)
# Test: Inhibition of Escherichia coli DNA gyrase supercoiling activity incubated for 30 mins in presence of spermidine/ATP by fluorescence based analysis
# Assay type: protein-complex assay
row,IC50 [nM],SMILES
1,19,O=C(O)C(=O)Nc1ccc2nc(N(Cc3ccccc3)C(=O)c3cc(Br)c(Br)[nH]3)sc2c1
2,96,O=C(O)C(=O)Nc1ccc2nc(N(Cc3cccc(C(=O)O)c3)C(=O)c3cc(Br)c(Br)[nH]3)sc2c1
3,134,O=C(O)C(=O)Nc1ccc2c(c1)s/c(=N\C(=O)c1cc(Br)c(Br)[nH]1)n2Cc1ccccc1
